Consider three molecules from ChEMBL document CHEMBL5678818, “Discovery of potent SOS1 inhibitors that block RAS activation via disruption of the RAS-SOS1 interaction” (Proc Natl Acad Sci U S A, 2019).

Assay [1] addresses Activated CDC42 kinase 1 (Homo sapiens) (UniProt Q07912). In words: Inhibition of TNK2 (unknown origin) assessed as residual activity at 1000 nM by KINOMEscan analysis relative to control.
In assay [2] the target is Calcium-dependent protein kinase 1 (Plasmodium falciparum) (UniProt P62344). In words: Inhibition of Plasmodium falciparum CDPK1 assessed as residual activity at 1000 nM by KINOMEscan analysis relative to control.
In assay [3] the target is Serine/threonine-protein kinase PLK2 (Homo sapiens) (UniProt Q9NYY3). As to the kind of experiment: Inhibition of PLK2 (unknown origin) assessed as residual activity at 1000 nM by KINOMEscan analysis relative to control.
The target in assay [4] is Tyrosine-protein kinase Fgr (Homo sapiens) (UniProt P09769). In words: Inhibition of FGR (unknown origin) assessed as residual activity at 1000 nM by KINOMEscan analysis relative to control.
The target of assay [5] is GTPase KRas (Homo sapiens) (UniProt P01116). In words: Stabilization of N-terminal His10-tagged wild-type recombinant human KRAS (1 to 169 residues) expressed in Escherichia coli assessed as change in melting temperature at 100 uM with heating from 25 to 85 degreeC by thermal shift assay.
In assay [6] the target is Ribosomal protein S6 kinase alpha-1 (Homo sapiens) (UniProt Q15418). As to the kind of experiment: Inhibition of N-terminal RSK1 kinetic domain 1 (unknown origin) assessed as residual activity at 1000 nM by KINOMEscan analysis relative to control.
The subject of assay [7] is Epidermal growth factor receptor (Homo sapiens), P00533 [G719C]. As to the kind of experiment: Inhibition of EGFR G719C mutant (unknown origin) assessed as residual activity at 1000 nM by KINOMEscan analysis relative to control.
Assay [8] deals with Epidermal growth factor receptor (Homo sapiens, UniProt P00533). As to the kind of experiment: Inhibition of EGFR (unknown origin) assessed as residual activity at 1000 nM by KINOMEscan analysis relative to control.
Assay [9] has as its target T1, Serine/threonine-protein kinase tousled-like 1 (Homo sapiens) (UniProt Q9UKI8).
T1 sequence (whole entry): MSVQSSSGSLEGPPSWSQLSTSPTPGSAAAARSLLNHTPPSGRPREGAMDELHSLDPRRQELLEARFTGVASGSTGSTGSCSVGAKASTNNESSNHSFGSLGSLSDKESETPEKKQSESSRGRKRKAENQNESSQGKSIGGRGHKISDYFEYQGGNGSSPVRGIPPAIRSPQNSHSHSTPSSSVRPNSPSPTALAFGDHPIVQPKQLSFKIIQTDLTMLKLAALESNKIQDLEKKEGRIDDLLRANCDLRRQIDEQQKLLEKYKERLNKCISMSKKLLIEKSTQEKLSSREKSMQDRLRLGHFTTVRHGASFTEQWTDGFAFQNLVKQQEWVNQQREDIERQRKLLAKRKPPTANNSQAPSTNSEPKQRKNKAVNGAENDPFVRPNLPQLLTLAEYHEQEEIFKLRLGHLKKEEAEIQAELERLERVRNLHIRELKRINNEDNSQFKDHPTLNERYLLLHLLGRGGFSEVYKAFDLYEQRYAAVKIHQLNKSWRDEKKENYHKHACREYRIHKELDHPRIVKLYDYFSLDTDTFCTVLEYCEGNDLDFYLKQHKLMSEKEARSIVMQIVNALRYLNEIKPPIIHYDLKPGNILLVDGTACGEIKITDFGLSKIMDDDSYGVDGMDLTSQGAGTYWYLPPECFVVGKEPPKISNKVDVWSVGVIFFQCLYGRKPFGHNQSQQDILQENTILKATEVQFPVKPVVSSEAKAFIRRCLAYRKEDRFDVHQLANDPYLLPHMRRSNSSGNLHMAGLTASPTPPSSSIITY
In words: Inhibition of TLK1 (unknown origin) assessed as residual activity at 1000 nM by KINOMEscan analysis relative to control.

In assay [10] the target is T2, NUAK family SNF1-like kinase 1 (Homo sapiens) (UniProt O60285).
T2 sequence (whole entry): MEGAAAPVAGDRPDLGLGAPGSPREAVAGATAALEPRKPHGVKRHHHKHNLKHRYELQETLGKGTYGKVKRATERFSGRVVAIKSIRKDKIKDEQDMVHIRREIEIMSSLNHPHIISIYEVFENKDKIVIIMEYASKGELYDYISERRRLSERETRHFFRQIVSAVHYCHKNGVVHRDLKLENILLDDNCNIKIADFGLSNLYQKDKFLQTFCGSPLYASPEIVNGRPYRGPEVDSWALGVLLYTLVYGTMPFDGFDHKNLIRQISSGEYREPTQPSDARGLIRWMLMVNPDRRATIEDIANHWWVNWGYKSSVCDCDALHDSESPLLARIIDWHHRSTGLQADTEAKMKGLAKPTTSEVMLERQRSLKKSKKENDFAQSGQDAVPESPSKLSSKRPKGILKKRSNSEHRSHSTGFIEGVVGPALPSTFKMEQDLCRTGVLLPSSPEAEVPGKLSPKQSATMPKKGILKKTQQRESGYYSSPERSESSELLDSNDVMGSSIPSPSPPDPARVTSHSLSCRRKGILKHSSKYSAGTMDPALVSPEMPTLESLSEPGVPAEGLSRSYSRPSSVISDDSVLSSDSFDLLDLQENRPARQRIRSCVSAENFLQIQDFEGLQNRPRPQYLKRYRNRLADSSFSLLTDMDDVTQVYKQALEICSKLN
As to the kind of experiment: Inhibition of ARK5 (unknown origin) assessed as residual activity at 1000 nM by KINOMEscan analysis relative to control.

What is called ΔTm is the change in melting temperature against a reference sample.

Turning to `COc1cc2ncnc(N[C@H](C)c3cccc4ccccc34)c2cc1OC`, the Activity in assay [1] amounted to 100%; in assay [2], 62%; in assay [3], 99%; in [4], 95%; in assay [6], 76%; in assay [7], 1.6%. The Activity in assay [8] was found to be 3.2%; in assay [9], 100%; in assay [10], 83%. The ΔTm in assay [5] was -1.1 °C.
Regarding `CNCc1ccccc1-c1csc([C@@H](C)Nc2nc(C)nc3cc(OC)c(OC)cc23)c1` [BAY-293], in assay [5], the ΔTm is 0.23 °C.
As to `COc1cc2nc(C)nc(N[C@H](C)c3cccc(-c4cn[nH]c4)c3)c2cc1OC`, the Activity in [1] came out at 70%; in assay [2] it was 81%; in assay [3], 99%; in assay [4], 48%; in [6] it was 95%; in assay [7] it was 77%. Besides, the Activity came out at 88% in [8], 78% in assay [9] and 100% in assay [10].
